Reference: US5270304A, “Therapeutic 2-alkynyl adenosine agent for ischemic diseases of the heart or brain” (priority 1988, dated 1993)

How the values were obtained:
coronary artery = assay: Coronary artery blood flow increasing effect; format: in vivo, mongrel dogs; settings: Canis lupus familiaris; anesthetized dogs, intraarterial into coronary artery; 100% = reactive hyperemia after 15 s occlusion
Experimental: Adult mongrel dogs weighing 9 to 15 kg were anesthetized with pentobarbital sodium, and the chest of each was opened under artificial respiration. After pericardium excision, the left anterior descending coronary artery was peeled off from the surrounding tissues, a probe for blood flow measurement was set under heparin sodium treatment, and the coronary blood flow was measured by the use of an electromagnetic blood flow meter.
The test drug was injected intraarterially into the coronary artery.

[1] = system: coronary artery / renal artery; assay: Safety coefficient (margin of safety from renal blood flow reduction and coronary artery blood flow increase); design: species or system mongrel dogs
Excerpt: As described above, the 2-alkynyladenosine, which is the active ingredient of the drug of the present invention, has a remarkable platelet aggregation inhibitory effect, blood flow increasing effect of various blood vessels (coronary artery and vertebral artery) and brain protecting effect in combination. […] To describe in more detail, the 2-alkynyladenosine, which is the active ingredient of the present drug, has an extremely high ratio of the primary effects such as platelet aggregation inhibitory effect, blood flow increasing effect of various blood vessels, and brain protecting effect to the side-effects such as atrioventricular block appearance ratio and renal blood flow reduction effect, that is, the 2-alkynyladenosine has an extremely broad margin of safety as compared to the prior compounds. For example, the margins of safety (coefficients) of the 2-alkynyladenosine calculated on the basis of the results in TABLE 2 and TABLE 4 by taking an example of coronary artery blood flow increasing effect as the primary effect and renal blood flow reduction effect as the side-effect are as shown below in TABLE 5. From TABLE 5, it can be understood that the 2-alkynyladenosine is a compound having a broader margin of safety as compared with adenosine.

[2] = Effect on renal blood flow (renal blood flow reduction effect); settings: dog, in vivo
Experimental: (§2) Female and male adult mongrel dogs weighing 10 to 15 kg were used. After each dog was anesthetized by intravenous administration of 30 mg/kg of pentobarbital sodium, it was fixed on the back, and the left lower abdominal portion was cut open under artificial respiration to expose the left renal artery. Under heparin sodium treatment, a polyethylene cannula was inserted into the renal artery, and at the other end of the cannula was set a probe for blood flow measurement. Self-perfusion was effected by means of a tube for blood perfusion led from the left femoral artery and connected to the probe, and the renal artery blood flow was measured by means of an electromagnetic blood flow meter.
(§3) The test drug was injected intraarterially into the renal artery.

vertebral artery = assay: Vertebral artery blood flow increasing effect; format: in vivo, mongrel dogs; settings: Canis lupus familiaris; anesthetized dogs, intraarterial into vertebral artery; 100% = increase by 100 μg/kg papaverine hydrochloride
Experimental: The chests of female and male adult mongrel dogs weighing 8 to 13 kg, under anesthesia by intravenous administration of pentobarbital sodium, were opened under artificial respiration along the median line to expose the left vertebral artery.
The test drug was injected intraarterially into the vertebral artery.

platelet aggregation = assay: Platelet aggregation inhibitory effect (ADP-induced aggregation of washed platelets); format: cell-based, Nippon white rabbits; settings: Oryctolagus cuniculus, washed rabbit platelets, 10 μM adenosine 5'-diphosphate, drug added 3 min before
Experimental: Male Nippon white rabbits weighing 2.0 to 2.5 kg were used. […] Next, centrifugation was carried out at 140×g for 15 minutes, and the supernatant (platelet-enriched plasma: PRP) was collected. The PRP was centrifuged at 1300×g for 7 minutes. The platelet pellets obtained were washed with a HEPES buffer for platelet washing (pH 6.5) and centrifuged at 1300×g for 7 minutes. […] For assaying platelet aggregation ability, an aggregometer was used, and 10 μl of a test drug was added to 380 μl of the platelet suspension. Three minutes later, 10 μl of a platelet aggregating substance (10 μM adenosine 5'-diphosphate at a final concentration) was added thereto to induce aggregation. […]

[3] = system: atrioventricular conduction; assay: Effect on atrioventricular conduction (atrioventricular block appearance ratio); format: in vivo, guinea pigs; settings: for Atrioventricular Block Appearance Ratio (Number of Animals Showing Appearance/Number of Animals Used): guinea pigs, second degree block, after intravenous 300 μg/kg
Experimental: Each of male guinea pigs weighing 360 to 600 g, after being anesthetized by intraperitoneal administration of 1.4 g/kg of urethane, was fixed on the back, and the trachea was cut open for ensuring airway, a polyethylene tube being inserted thereinto. The blood pressure was measured through a carrier amplifier by connecting the cannula inserted into the left common carotid artery to a pressure transducer. The electrocardiogram was recorded by means of a bioelectric amplifier according to the second induction method, and the PQ interval was measured from the electrocardiogram. The test drug was administered through the left femoral vein, and the presence or absence of appearance of atrioventricular block is represented by the appearance ratio of the second degree of atrioventricular block (number of animals showing appearance/number of animals used) by the test drug administration.

in vivo = settings: dog
Experimental: as §2, §3

ICR mice [4] = assay: Brain protecting effect: normobaric hypoxia method; format: in vivo; settings: 30 min before 96% N2/4% O2, (±S.E.), control 126.8 ±10.7
Experimental: When the brain falls into hypoxia by cerebral circulatory disorder, its function will be rapidly and irreversibly lost. Accordingly, the pharmacological activities of the drugs were evaluated with the extension time relative to the survival time of the test animals under hypoxia or anoxia induced by changing gas phase components or by a drug.
Evaluation of the pharmacological activity by the normobaric hypoxia method was conducted by following the method of Yasuda et al. (Arch. Int. Pharmacodyn, 233, 136-144 (1978)) as described below.
Animals used were 8 to 11 male ICR mice of 7 weeks age (Clea Japan) per group.
The mice were placed in a desiccator made of glass, and hypoxia was induced by passing a gas mixture of 96% N2 and 4% O2 at a flow rate of 5 liters/min. The time after the passing of the gas into the desiccator to the respiration arrest of each mouse was measured and defined as the survival time.
The test drug was administered intraperitoneally 30 minutes before the initiation of gas passing. The average survival times for the control group and the group to which the test drug was administered were calculated.
The test drug was suspended in a physiological saline containing 0.5% CMC (carboxymethyl cellulose), and the dosage was 0.1 ml per 10 g of body weight. To the mice of the control group was administered 0.5% of the CMC physiological saline in the same manner. The statistical analysis was conducted according to the student's t-test.

ICR mice [5] = assay: Brain protecting effect: potassium cyanide (KCN)-induced anoxia method; format: in vivo; settings: 30 min before 2.5 mg/kg KCN, (±S.E.), * P < 0.05
Acute toxicity = settings: mouse, in vivo; mice, oral administration, estimated
Experimental: (§1) By the use of Slc:ICR mice (7 to 8 weeks old), the acute toxicity tests of Compound 4 (n=5) and Compound 12 (n=13) were conducted.

Slc:ICR mice = assay: Acute toxicity; settings: mouse, in vivo, po, 1000 mg/kg
Experimental: as §1

Nc1ncnc2c1ncn2[C@@H]1O[C@H](CO)[C@@H](O)[C@H]1O [Adenosine]
ED50 (coronary artery): 0.0001 mg/kg
Safety Coefficient ([1]; from TABLE 2 coronary artery blood flow increasing effect and TABLE 4 renal blood flow reduction effect): 2
ED50 [2]: 0.0002 mg/kg
ED50 (vertebral artery): 0.00052 mg/kg
IC50 (platelet aggregation): 3200 nM
Atrioventricular Block Appearance Ratio (Number of Animals Showing Appearance/Number of Animals Used) [3]: 6/6

CCCCC#Cc1nc(N)c2ncn([C@@H]3O[C@H](CO)[C@@H](O)[C@H]3O)c2n1 [Compound 2, 2-hexynyladenosine]
ED50 (in vivo): 0.00015 mg/kg
Safety Coefficient ([1]; dog, in vivo): 75
Average Survival Time, Normobaric Hypoxia Method (ICR mice [4]; 0.1 mg/kg i.p.): 171.9 (±22.1) sec.
Average Survival Time, Normobaric Hypoxia Method (ICR mice [4]; 0.3 mg/kg i.p.): 169.2 (±23.5) sec.
Average Survival Time, Normobaric Hypoxia Method (ICR mice [4]; 1.0 mg/kg i.p., ** P < 0.01): 217.3 (±26.2) sec.
ED50 (vertebral artery): 0.00014 mg/kg
Average Survival Time, Potassium Cyanide Induced Anoxia Method (ICR mice [5]; 1.0 mg/kg i.p., control (1) 39.8 (±2.4)): 50.05 (±3.8) sec.
IC50 (platelet aggregation): 61 nM
atrioventricular block appearance ratio compared with adenosine ([3]; 300 μg/kg intravenous): same atrioventricular block appearance ratio as that of adenosine
Atrioventricular Block Appearance Ratio (Number of Animals Showing Appearance/Number of Animals Used) [3]: 6/6

CCCCCCC#Cc1nc(N)c2ncn([C@@H]3O[C@H](CO)[C@@H](O)[C@H]3O)c2n1 [Compound 4, 2-octynyladenosine]
LD50 (Acute toxicity): ≥ 1000 mg/kg
lethal cases (Slc:ICR mice): no lethal case was recognized
ED50 (in vivo): > 0.003 mg/kg
Safety Coefficient ([1]; dog, in vivo): > 375
Average Survival Time, Normobaric Hypoxia Method (ICR mice [4]; 0.3 mg/kg i.p.): 128.7 (±4.8) sec.
Average Survival Time, Normobaric Hypoxia Method (ICR mice [4]; 1.0 mg/kg i.p., ** P < 0.01): 222.9 (±25.9) sec.
Average Survival Time, Normobaric Hypoxia Method (ICR mice [4]; 3.0 mg/kg i.p., ** P < 0.01): 230.6 (±26.7) sec.
ED50 (vertebral artery): 0.0004 mg/kg
IC50 (platelet aggregation): 140 nM
Atrioventricular Block Appearance Ratio (Number of Animals Showing Appearance/Number of Animals Used) [3]: 1/6

CCCCCCCC#Cc1nc(N)c2ncn([C@@H]3O[C@H](CO)[C@@H](O)[C@H]3O)c2n1 [Compound 5]
ED50 (in vivo): > 0.003 mg/kg
Safety Coefficient ([1]; dog, in vivo): > 40
ED50 (vertebral artery): 0.0012 mg/kg
IC50 (platelet aggregation): 210 nM
Atrioventricular Block Appearance Ratio (Number of Animals Showing Appearance/Number of Animals Used) [3]: 0/6

CCCCCCCCC#Cc1nc(N)c2ncn([C@@H]3O[C@H](CO)[C@@H](O)[C@H]3O)c2n1 [Compound 6]
ED50 (in vivo): > 0.003 mg/kg
ED50 (coronary artery): 0.00015 mg/kg
Safety Coefficient ([1]; dog, in vivo): > 20
ED50 (vertebral artery): > 0.003 mg/kg
IC50 (platelet aggregation): 720 nM
Atrioventricular Block Appearance Ratio (Number of Animals Showing Appearance/Number of Animals Used) [3]: 1/6

CCCCCCCCCCCCCCC#Cc1nc(N)c2ncn([C@@H]3O[C@H](CO)[C@@H](O)[C@H]3O)c2n1 [Compound 12, 2-hexadecynyladenosine]
LD50 (Acute toxicity): ≥ 1000 mg/kg
lethal cases (Slc:ICR mice): no lethal case was recognized
ED50 (in vivo): > 0.003 mg/kg
ED50 (coronary artery): > 0.0001 mg/kg
Safety Coefficient ([1]; dog, in vivo): 30
ED50 (vertebral artery): > 0.003 mg/kg
Average Survival Time, Potassium Cyanide Induced Anoxia Method (ICR mice [5]; 30 mg/kg i.p., control (2) 41.8 (±1.9)): 76.7 (±11.7) sec.
IC50 (platelet aggregation): > 3100 nM
Atrioventricular Block Appearance Ratio (Number of Animals Showing Appearance/Number of Animals Used) [3]: 0/6
